Numbered stars: 1 amine (or outer) side, 2 acyl side, 3 side chain; on linkers, the order of the positions; unused ones are H or OH. Peptide text beside a SMILES is read from it. * marks the point of attachment. pNA = O=[N+]([O-])c1ccc(N*)cc1; Suc = O=C(CCC(=O)[*:2])[*:1]; Cbz = O=C(OCc1ccccc1)*
Test system: P. gingivalis DPP-7
Assay: Kinetic analysis of p-nitroanilide substrate cleavage by DPP-7
Format: biochemical, Porphyromonas gingivalis
Conditions: for hydrolysis of chromogenic substrate by DPP-7: p-nitroanilide substrates
Procedure: Kinetic Analysis—Routinely, the dipeptidylpeptidase amidolytic activity was measured with H-Ala-Phe-pNA (1 mM) in 0.2 M HEPES, pH 7.8 at 37° C. The reaction was followed for specific time intervals in a thermostated ELISA reader (SpectraMax, Applied Biosystem) and the release of p-nitroaniline was monitored at 405 nm. Other p-nitroanilide substrates were used in the same manner. For inhibition studies, the enzyme was first preincubated with an inhibitor for 15 minutes at 37° C., substrate added, and residual activity recorded. The initial steady-state velocity (v0) was determined by continuous assay for the range of substrate concentrations (100 nM to 1 mM). Km and Vmax were determined by hyperbolic regression of the kinetic data using the software package Hyper Version 1.02 obtained from Dr. J. S. Easterby (University of Liverpool, UK).
Substrate Specificity—Among several chromogenic substrates tested, only those with an aliphatic or an aromatic side chain residues in the second, penultimate position were rapidly hydrolyzed by DPP-7 (Table 2).

| Compound | hydrolysis of chromogenic substrate by DPP-7 | Km (0.2 M HEPES, pH 7.8, 37° C.) [µM] | Vmax (0.2 M HEPES, pH 7.8, 37° C.) |
| --- | --- | --- | --- |
| CC(C)C[C@H](NC(=O)OCc1ccccc1)C(=O)N[C@@H](CC(C)C)C(=O)N[C@@H](CCC(=O)O)C(=O)Nc1ccc([N+](=O)[O-])cc1 [Z-Leu-Leu-Glu-pNA] (Cbz-Leu-Leu-Glu-pNA) | none of these was hydrolysed | – | – |
| C[C@H](N)C(=O)N[C@@H](Cc1ccccc1)C(=O)Nc1ccc([N+](=O)[O-])cc1 [H-Ala-Phe-pNA] | – | 441 | 170.06 |
| CC(C)C[C@H](NC(=O)[C@@H]1CCCN1C(=O)[C@H](C)NC(=O)[C@H](C)NC(=O)CCC(=O)O)C(=O)Nc1ccc([N+](=O)[O-])cc1 [N-suc-Ala-Ala-Pro-Leu-pNA] (Suc-AAPL-pNA) | none of these was hydrolysed | – | – |
| O=C(O)CC[C@H](NC(=O)OCc1ccccc1)C(=O)N[C@@H](CCC(=O)O)C(=O)Nc1ccc([N+](=O)[O-])cc1 [Z-Glu-Glu-pNA] (Cbz-Glu-Glu-pNA) | none of these was hydrolysed | – | – |
| NC(N)=NCCCC(NC(=O)c1ccccc1)C(=O)Nc1ccc([N+](=O)[O-])cc1 (racemic) [Nα-benzoyl-DL-arginine-pNA] | none of these was hydrolysed | – | – |
| N[C@@H](Cc1ccccc1)C(=O)Nc1ccc([N+](=O)[O-])cc1 [H-Phe-pNA] | none of these was hydrolysed | – | – |
| C[C@H](NC(=O)OCc1ccccc1)C(=O)N[C@@H](C)C(=O)Nc1ccc([N+](=O)[O-])cc1 [Z-Ala-Ala-pNA] (Cbz-Ala-Ala-pNA) | none of these was hydrolysed | – | – |
| NCCCC[C@H](NC(=O)OCc1ccccc1)C(=O)Nc1ccc([N+](=O)[O-])cc1 [Z-Lys-pNA] | none of these was hydrolysed | – | – |
| N=C(N)NCCC[C@H](NC(=O)OCc1ccccc1)C(=O)Nc1ccc([N+](=O)[O-])cc1 [Z-Arg-pNA] | none of these was hydrolysed | – | – |
| CC(C)C[C@H](N)C(=O)Nc1ccc([N+](=O)[O-])cc1 [H-Leu-pNA] | none of these was hydrolysed | – | – |
| C[C@H](N)C(=O)N[C@@H](C)C(=O)N[C@@H](Cc1ccccc1)C(=O)Nc1ccc([N+](=O)[O-])cc1 [H-Ala-Ala-Phe-pNA] (H-Ala-Ala-Phe-pNA) | none of these was hydrolysed | – | – |
| C[C@H](N)C(=O)NCC(=O)Nc1ccc([N+](=O)[O-])cc1 [H-Ala-Gly-pNA] (H-Ala-Gly-pNA) | none of these was hydrolysed | – | – |
| CC[C@H](C)[C@H](N)C(=O)Nc1ccc([N+](=O)[O-])cc1 [H-Ile-pNA] | none of these was hydrolysed | – | – |
| NCC(=O)Nc1ccc([N+](=O)[O-])cc1 [H-Gly-pNA] | none of these was hydrolysed | – | – |
| C[C@H](N)C(=O)N1CCC[C@H]1C(=O)Nc1ccc([N+](=O)[O-])cc1 [H-Ala-Pro-pNA] (H-Ala-Pro-pNA) | none of these was hydrolysed | – | – |
| NCC(=O)NCC(=O)Nc1ccc([N+](=O)[O-])cc1 [H-Gly-Gly-pNA] (H-Gly-Gly-pNA) | none of these was hydrolysed | – | – |
| C[C@H](NC(=O)CCC(=O)O)C(=O)N[C@@H](C)C(=O)Nc1ccc([N+](=O)[O-])cc1 [N-suc-Ala-Ala-pNA] (Suc-Ala-Ala-pNA) | none of these was hydrolysed | – | – |
| NCC(=O)N[C@@H](CCCN=C(N)N)C(=O)Nc1ccc([N+](=O)[O-])cc1 [H-Gly-Arg-pNA] (H-Gly-Arg-pNA) | none of these was hydrolysed | – | – |
| NC(N)=NCCC[C@H](NC(=O)[C@H](Cc1ccccc1)NC(=O)OCc1ccccc1)C(=O)Nc1ccc([N+](=O)[O-])cc1 [Z-Phe-Arg-pNA] (Cbz-Phe-Arg-pNA) | none of these was hydrolysed | – | – |
